The values that follow come from paper PMC11738990, “A small-molecule TNIK inhibitor targets fibrosis in preclinical and clinical models” (Nature Biotechnology, 2024).

Type in all cases: cell-based, human
Assay [1] relates to primary lung fibroblasts from donors with IPF. Kind of assay: FMT by α-SMA, high-content analysis. To be noted: three donors with IPF; read-out: IC50, TGF-β-mediated α-SMA expression. How it is done:
For the measurement of FMT by α-SMA, on the first day, human lung-derived primary lung fibroblast cells were seeded. After 2 d, the medium of the cells was refreshed. […] On the eighth day (72 h after triggering), cells were fixed with 4% formaldehyde, stained for α-SMA and with DAPI and then imaged and quantified via high-content analysis (HCA) (IN Cell Analyzer 2200, GE Healthcare).
Segmentation and quantification of α-SMA and FN1 immunoreactivity was carried out with an HCA algorithm, with density × area (D × A) output. Data normalization of raw α-SMA or FN1 (D × A) to percent inhibition values was performed on a plate-to-plate basis.
[…]
μp is the average α-SMA or FN1 value of the positive control (TGF-β1 + 1 μM SB525334). μn is the average α-SMA or FN1 value of the vehicle control (TGF-β1 + 0.1% DMSO). Xi is the compound α-SMA or FN1 value. IC50 values for all compounds (if calculable, based on the point of inflection) were calculated with GraphPad Prism using non-linear fit of log (inhibitor) versus response (four parameter).
DAPI fluorescence was applied for HCA-based quantification of the number of imaged cells on a plate-to-plate basis.
Percent remaining cells = (Xi/μn) × 100%
μn is the average number of nuclei of the vehicle control (TGF-β1 + 0.1% DMSO). Xi is the compound number of nuclei.

The test system of a further assay is HK-2 cells. Nature of the assay: TGF-β-induced α-SMA expression, western blot. As to the method: INS018-055 stock was diluted to eight concentrations in a threefold dilution with DMSO from the final highest concentration at 10 μM. A total of 3.0 × 10^5 HK-2 cells per well were seeded into a six-well plate containing 2.0 ml culture medium at a density of 3.0 × 10^5 cells per well. The cells were cultured overnight at 37 °C. The next day, the complete medium was replaced with K-SFM medium supplemented with 0.025 mg ml^−1 bovine pituitary extract, 2.5 ng ml^−1 EGF and 1% penicillin–streptomycin for starvation. After 24 h of incubation, HK-2 cells were treated with compounds (eight concentrations, threefold dilution) for 30 min before being stimulated with 8 ng ml^−1 TGF-β for an additional 48 h. TGF-β induction was used as the maximum induction positive control. The final DMSO concentration in the assay was 0.1%. Cells were cultured for 48 h at 37 °C. The culture medium was discarded at the end of induction. Cells were washed once using ice-cold DPBS. RIPA buffer was added to lyse the cells for 20 min. Cells were collected, and the supernatant was stored at −80 °C. The total amount of protein in the lysate was determined using the BCA Protein Assay Kit.
For whole-cell lysates, cells were collected and lysed on ice for 20 min with RIPA buffer with protease and phosphatase inhibitors (cOmplete and PhosSTOP, Roche). The protein concentration of the cell lysates was determined using the BCA Protein Assay Kit. After denaturation, whole-cell lysates and cytoplasm and nuclear extraction fractions were loaded onto 4–12% gradient Bis-Tris gels (15 wells) and 4–20% Tris-glycine gels (26 wells), respectively. For western blot detection of target proteins, 15 μg of whole-cell lysates, 5–10 μg of the cytoplasm fraction, 1–2 μg of nuclear matrix and 2–4 μg of the chromatin fraction were loaded into each lane. For western blot detection of histone 3, 0.4–1 μg of the chromatin fraction was loaded. The gels were run for 0.5 h at 80 V before being run at 120 V for another 1 h. When electrophoresis was completed, the gels containing target proteins were transferred onto NC membrane using the iBlot 2 Gel Transfer Device for 13 min at 20 V. All membranes were blocked with 5% BSA in TBST buffer at room temperature for 1 h and then incubated with primary antibodies specific to the indicated targets in TBST buffer containing 5% BSA at 4 °C overnight. After the primary antibody, membranes were washed three times with TBST buffer before incubation with HRP-conjugated secondary antibodies at room temperature for 1 h. Membranes were stripped with Restore Western Blot Stripping Buffer (Thermo Fisher) for GAPDH reference protein detection after exposure for the target proteins. Images of blots were acquired using Image Quant LAS 4000. Integrated intensity of bands from 16-bit blot images was used for quantitation with the software Image Studio Lite. Protein-quantification data of two independent experiments were calculated and analyzed using GraphPad.
For orientation: In western blotting, separated proteins are transferred to a membrane and probed.

In the next assay the test system is NHDF cells. Kind of assay: Fibronectin and procollagen I in supernatant (ELISA). To be noted: TGF-β 10 ng/ml, 72 h. For orientation: In an ELISA, binding on a coated surface is turned into a signal by an enzyme label.

Where “and” joins values, the source holds several entries; their conditions need not be identical. Equal entries are not always repeated. Where two headings read alike, the source gives them in different places.

Description for NHDF cells: The medium was then replaced with assay medium containing or not containing (control conditions) the test compounds, and TGF-β (10 ng ml^−1) was added or not (unstimulated control). […] Fibronectin and procollagen I contents were measured in the culture supernatants using specific ELISA kits (Takara, MK115 for fibronectin and MK101 for procollagen type I) according to the supplier’s instructions.

By IC50 is commonly meant the point on the concentration scale where inhibition reaches its midpoint. As to `CC(C)n1cnc(-c2ccc(F)cc2)c1-c1nc(C(=O)Nc2ccc(N3CCN(C)CC3)cc2)c[nH]1` [INS018_055, 2-[4-(4-fluorophenyl)-1-(prop-2-yl)imidazol-5-yl]-N-[4-(4-methylhexahydropyrazin-1-yl)phenyl]-1H-imidazole-4-carboxamide], the IC50 in assay [1] is 50 nM and 79 nM and 63 nM; in the assay on HK-2 cells (TGF-β 8 ng/ml, 48 h, single experiment, read-out: IC50 for α-SMA inhibition), 104 nM; with NHDF cells (read-out: IC50, fibronectin in supernatant) it was roughly 135 nM; with NHDF cells (read-out: IC50, procollagen I in supernatant) it was roughly 232 nM. Further, the “a-SMA normalized by GAPDH” value in the assay with HK-2 cells (0.004572 uM) was found to be 2.139; with HK-2 cells (0.0411523 uM), 1.835; in the assay with HK-2 cells (0.123457 uM), 1.612; with HK-2 cells (0.37037 uM), 1.401; with HK-2 cells (3.33333 uM), 1.182; with HK-2 cells (10 uM), 1.23.
